Measurements reported in PubChem BioAssay AID248 (DTP/NCI, 2004).
Several values for one entry are separate records, joined by “and”; a condition that tells them apart may be missing. Equal values may be shown once. Toxic doses and inconclusive results are not listed. Rule as the data show it: active = T/C of 150% or more; inactive = T/C below 125%. Square brackets hold non-standard residues; d marks the D form. Peptide text beside a SMILES is read from it. * marks the point of attachment. ξ: configuration not given here. ξY = NC(Cc1ccc(O)cc1)C(=O)O; Cbz = O=C(OCc1ccccc1)*

Test system: L1210 leukemia ip in BDF1 mice, survival T/C
Assay: NCI In Vivo Anticancer Drug Screen. Data for tumor model L1210 Leukemia (intraperitoneal) in B6D2F1 (BDF1) mice
Settings: endpoint: mean survival time, higher = longer survival
Procedure, shortened: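 Transplanted-tumor mice were given test agent; controls received vehicle only. Survival readings from the two groups were divided (treated over control).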

[1] = dose: 100.0 mg/kg/injection, schedule: Q04DX003 (ip), vehicle: Klucel (hydroxypropylcellulose) (HPC)
[2] = dose: 100.0 mg/kg/injection, schedule: Q04DX002 (ip), vehicle: saline with Tween-80
[3] = dose: 100.0 mg/kg/injection, schedule: Q04DX003 (ip), vehicle: saline
[4] = dose: 100.0 mg/kg/injection, schedule: Q04DX003 (ip), vehicle: saline with Tween-80
[5] = dose: 200.0 mg/kg/injection, schedule: Q04DX003 (ip), vehicle: saline with Tween-80
[6] = dose: 400.0 mg/kg/injection, schedule: Q04DX003 (ip), vehicle: saline with Tween-80

Measured: T/C

CC(O)C[As](=O)(O)c1ccccc1 (configuration not stated)
inactive: dose: 12.5 mg/kg/injection, schedule: Q04DX002 (ip), vehicle: saline 103 % of control | dose: 25.0 mg/kg/injection, schedule: Q04DX002 (ip), vehicle: saline 100 % of control

CCSC(C(O)C(O)C(O)CO)n1ccc(=O)[nH]c1=O (configuration not stated)
inactive: dose: 100.0 mg/kg/injection, schedule: Q01DX005 (ip), vehicle: saline 97 % of control | dose: 200.0 mg/kg/injection, schedule: Q01DX005 (ip), vehicle: saline 93 % of control

CN1CCN(CCNC(c2ccccc2)C(O)c2ccccc2)CC1 (configuration not stated)
inactive: [1] 97 % of control

CN(C)CCC(=O)/C=C\c1ccccc1
inactive: dose: 25.0 mg/kg/injection, schedule: Q01DX009 (ip), vehicle: saline 91 % of control | dose: 25.0 mg/kg/injection, schedule: Q04DX002 (ip), vehicle: saline with Tween-80 105 % of control | dose: 25.0 mg/kg/injection, schedule: Q04DX003 (ip), vehicle: saline 89 % of control | dose: 50.0 mg/kg/injection, schedule: Q01DX009 (ip), vehicle: saline 88 % of control | dose: 50.0 mg/kg/injection, schedule: Q04DX002 (ip), vehicle: saline with Tween-80 98 % of control | dose: 50.0 mg/kg/injection, schedule: Q04DX003 (ip), vehicle: saline 90 % of control | dose: 100.0 mg/kg/injection, schedule: Q01DX009 (ip), vehicle: saline 88 % of control | [2] 88 % of control | [3] 89 % of control

N#Cc1c(CBr)ccc2ccccc12
inactive: dose: 75.0 mg/kg/injection, schedule: Q01DX001 (ip), vehicle: saline 92 % of control

COC(OC)c1cc(=O)[nH]c(=S)[nH]1
inactive: dose: 25.0 mg/kg/injection, schedule: Q04DX003 (ip), vehicle: Klucel (hydroxypropylcellulose) (HPC) 100 % of control | dose: 50.0 mg/kg/injection, schedule: Q01DX001 (ip), vehicle: Klucel (hydroxypropylcellulose) (HPC) 111 % of control | dose: 50.0 mg/kg/injection, schedule: Q04DX003 (ip), vehicle: Klucel (hydroxypropylcellulose) (HPC) 91 % of control | dose: 100.0 mg/kg/injection, schedule: Q01DX001 (ip), vehicle: Klucel (hydroxypropylcellulose) (HPC) 90 % of control | [1] 92 % of control | dose: 200.0 mg/kg/injection, schedule: Q01DX001 (ip), vehicle: Klucel (hydroxypropylcellulose) (HPC) 98 % of control

CCOC(=O)C(Br)C(Br)c1ccccc1 (configuration not stated)
inactive: [3] 103 % of control | dose: 200.0 mg/kg/injection, schedule: Q04DX003 (ip), vehicle: saline 108 % of control | dose: 400.0 mg/kg/injection, schedule: Q04DX003 (ip), vehicle: saline 98 % of control

CC12CCC(=O)C=C1CCC1C2CCC2(C)C(OC(=O)CN3CC3)CCC12 (configuration not stated)
inactive: dose: 100.0 mg/kg/injection, schedule: Q01DX001 (sc), vehicle: steriod suspending solution 101 % of control | dose: 200.0 mg/kg/injection, schedule: Q01DX001 (sc), vehicle: steriod suspending solution 97 % of control | dose: 400.0 mg/kg/injection, schedule: Q01DX001 (sc), vehicle: steriod suspending solution 103 % of control

COC1=C(c2ccccc2)C(=O)CCc2ccccc21
inactive: [1] 97 % of control | dose: 200.0 mg/kg/injection, schedule: Q04DX003 (ip), vehicle: Klucel (hydroxypropylcellulose) (HPC) 106 % of control | dose: 400.0 mg/kg/injection, schedule: Q04DX003 (ip), vehicle: Klucel (hydroxypropylcellulose) (HPC) 97 % of control

CCOC(=O)C(Cc1ccc(O)cc1)NC(=O)CNC(=O)OCc1ccccc1 (stereo not drawn) (Cbz-Gly-[ξY]-OEt)
inactive: [4] 106 % of control | [5] 95 % of control | [6] 96 % of control

CCCCCCCCCCCCCCCCCCNC(=O)Cc1ccc(N(CCCl)CCCl)cc1
inactive: dose: 100.0 mg/kg/injection, schedule: Q01DX009 (ip), vehicle: Klucel (hydroxypropylcellulose) (HPC) 94 % of control | dose: 200.0 mg/kg/injection, schedule: Q01DX009 (ip), vehicle: Klucel (hydroxypropylcellulose) (HPC) 95 % of control

Cc1ccc(C)c(NC(=O)Nc2nccs2)c1
inactive: dose: 100.0 mg/kg/injection, schedule: Q01DX001 (ip), vehicle: saline with Tween-80 96 % of control | dose: 100.0 mg/kg/injection, schedule: Q01DX009 (ip), vehicle: saline with Tween-80 96 % of control and 97 % of control | [2] 96 % of control and 90 % of control | [4] 95 % of control | dose: 200.0 mg/kg/injection, schedule: Q01DX001 (ip), vehicle: saline with Tween-80 104 % of control | dose: 200.0 mg/kg/injection, schedule: Q01DX009 (ip), vehicle: saline with Tween-80 92 % of control and 93 % of control | dose: 200.0 mg/kg/injection, schedule: Q04DX002 (ip), vehicle: saline with Tween-80 93 % of control and 97 % of control | [5] 86 % of control | dose: 400.0 mg/kg/injection, schedule: Q01DX001 (ip), vehicle: saline with Tween-80 96 % of control | dose: 400.0 mg/kg/injection, schedule: Q01DX009 (ip), vehicle: saline with Tween-80 94 % of control and 96 % of control | dose: 400.0 mg/kg/injection, schedule: Q04DX002 (ip), vehicle: saline with Tween-80 100 % of control and 110 % of control | [6] 88 % of control
